In ChEMBL document CHEMBL1201862, “PubChem BioAssay data set” (2004):
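Assay format: 96-well plates, 48-hour exposure. GI50 marks 50% less growth.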 The source made the active and inactive calls. Cut-off read from the data, not from the text of the source: active = GI50 up to about 1.1 µM and inactive = higher.

Assays:
Assay in all cases: inhibition of tumour cell growth, NCI panel, 48 h
NCI-H522 = tested on: NCI-H522
HCT-15 = tested on: HCT-15
TK-10 = tested on: TK-10
SK-MEL-5 = tested on: SK-MEL-5
IGROV-1 = tested on: IGROV-1
MDA-MB-231 = tested on: MDA-MB-231
T47D = tested on: T47D
SR = tested on: SR
SK-MEL-2 = tested on: SK-MEL-2
NCI-H226 = tested on: NCI-H226
NCI/ADR-RES = tested on: NCI/ADR-RES
SW-620 = tested on: SW-620
PC-3 = tested on: PC-3
UO-31 = tested on: UO-31
COLO 205 = tested on: COLO 205
SF-268 = tested on: SF-268
ACHN = tested on: ACHN
HT-29 = tested on: HT-29
SF-295 = tested on: SF-295
OVCAR-3 = tested on: OVCAR-3
CAKI-1 = tested on: CAKI-1
MDA-MB-435 = tested on: MDA-MB-435
HCC 2998 = tested on: HCC 2998
LOX IMVI = tested on: LOX IMVI
MOLT-4 = tested on: MOLT-4
RPMI-8226 = tested on: RPMI-8226
NCI-H23 = tested on: NCI-H23
M14 = tested on: M14
Malme-3M = tested on: Malme-3M
Hs-578T = tested on: Hs-578T
SNB-19 = tested on: SNB-19
BT-549 = tested on: BT-549
OVCAR-8 = tested on: OVCAR-8
RXF 393 = tested on: RXF 393
CCRF-CEM = tested on: CCRF-CEM
A549 = tested on: A549
MCF7 = tested on: MCF7
OVCAR-4 = tested on: OVCAR-4
UACC-257 = tested on: UACC-257
HOP-92 = tested on: HOP-92
OVCAR-5 = tested on: OVCAR-5
KM12 = tested on: KM12
NCI-H460 = tested on: NCI-H460
SK-MEL-28 = tested on: SK-MEL-28
DU-145 = tested on: DU-145
A498 = tested on: A498
U-251 = tested on: U-251
UACC-62 = tested on: UACC-62
786-0 = tested on: 786-0
K562 = tested on: K562
EKVX = tested on: EKVX
HCT-116 = tested on: HCT-116
SNB-75 = tested on: SNB-75
SN12C = tested on: SN12C
HL-60 = tested on: HL-60
HOP-62 = tested on: HOP-62
SK-OV-3 = tested on: SK-OV-3

SMILES: Cn1c2ccccc2n2c3ccccc3c3nnc(N)c-3c12
- GI50 (NCI-H522): 8.53 µM (inactive)
- GI50 (HCT-15): > 100 µM
- GI50 (TK-10): > 100 µM (inactive)
- GI50 (SK-MEL-5): 28.9 µM (inactive)
- GI50 (IGROV-1): > 100 µM (inactive)
- GI50 (MDA-MB-231): 55 µM (inactive)
- GI50 (T47D): 1.64 µM (inactive)
- GI50 (SR): 26.7 µM (inactive)
- GI50 (SK-MEL-2): 22.6 µM (inactive)
- GI50 (NCI-H226): > 93.1 µM (inactive)
- GI50 (NCI/ADR-RES): > 100 µM (inactive)
- GI50 (SW-620): 57.8 µM (inactive)
- GI50 (PC-3): 68.2 µM (inactive)
- GI50 (UO-31): > 100 µM (inactive)
- GI50 (COLO 205): 32.4 µM (inactive)
- GI50 (SF-268): 0.589 µM (active)
- GI50 (ACHN): 91.2 µM (inactive)
- GI50 (HT-29): > 100 µM (inactive)
- GI50 (SF-295): 5.58 µM (inactive)
- GI50 (OVCAR-3): 28.2 µM (inactive)
- GI50 (CAKI-1): 76.4 µM (inactive)
- GI50 (MDA-MB-435): > 88.7 µM (inactive)
- GI50 (HCC 2998): 41.2 µM (inactive)
- GI50 (LOX IMVI): 57.7 µM (inactive)
- GI50 (MOLT-4): 7.67 µM (inactive)
- GI50 (RPMI-8226): > 100 µM (inactive)
- GI50 (NCI-H23): 17.5 µM (inactive)
- GI50 (M14): > 95.3 µM (inactive)
- GI50 (Malme-3M): 10.5 µM (inactive)
- GI50 (Hs-578T): 1.69 µM (inactive)
- GI50 (SNB-19): 1.45 µM (inactive)
- GI50 (BT-549): 2.25 µM (inactive)
- GI50 (OVCAR-8): 8.18 µM (inactive)
- GI50 (RXF 393): 22.7 µM (inactive)
- GI50 (CCRF-CEM): 37.3 µM (inactive)
- GI50 (A549): > 100 µM (inactive)
- GI50 (MCF7): 19.2 µM (inactive)
- GI50 (OVCAR-4): 41 µM (inactive)
- GI50 (UACC-257): 51.1 µM (inactive)
- GI50 (HOP-92): 42.4 µM (inactive)
- GI50 (OVCAR-5): > 100 µM (inactive)
- GI50 (KM12): 61.5 µM (inactive)
- GI50 (NCI-H460): > 60.4 µM (inactive)
- GI50 (SK-MEL-28): > 81.3 µM (inactive)
- GI50 (DU-145): 33.7 µM (inactive)
- GI50 (A498): > 100 µM (inactive)
- GI50 (U-251): 0.673 µM (active)
- GI50 (UACC-62): 73.6 µM (inactive)
- GI50 (786-0): 0.847 µM (active)
- GI50 (K562): > 65.8 µM (inactive)
- GI50 (EKVX): > 100 µM (inactive)
- GI50 (HCT-116): 35.2 µM (inactive)
- GI50 (SNB-75): 1.95 µM (inactive)
- GI50 (SN12C): 0.757 µM (active)
- GI50 (HL-60): > 100 µM (inactive)
- GI50 (HOP-62): 9.2 µM (inactive)
- GI50 (SK-OV-3): > 95.1 µM (inactive)

SMILES: O=C(O)C(O)Cc1ccccn1 (centres undefined)
- GI50 (NCI-H522): > 100 µM (inactive)
- GI50 (HCT-15): > 100 µM
- GI50 (TK-10): > 100 µM (inactive)
- GI50 (SK-MEL-5): > 100 µM (inactive)
- GI50 (IGROV-1): > 100 µM (inactive)
- GI50 (MDA-MB-231): > 100 µM (inactive)
- GI50 (T47D): > 100 µM (inactive)
- GI50 (SR): > 100 µM (inactive)
- GI50 (SK-MEL-2): > 100 µM (inactive)
- GI50 (NCI-H226): > 100 µM (inactive)
- GI50 (NCI/ADR-RES): > 100 µM (inactive)
- GI50 (SW-620): > 100 µM (inactive)
- GI50 (PC-3): > 100 µM (inactive)
- GI50 (UO-31): > 100 µM (inactive)
- GI50 (COLO 205): > 100 µM (inactive)
- GI50 (SF-268): > 100 µM (inactive)
- GI50 (ACHN): > 100 µM (inactive)
- GI50 (HT-29): > 100 µM (inactive)
- GI50 (SF-295): > 100 µM (inactive)
- GI50 (OVCAR-3): > 100 µM (inactive)
- GI50 (CAKI-1): > 100 µM (inactive)
- GI50 (MDA-MB-435): > 100 µM (inactive)
- GI50 (HCC 2998): > 100 µM (inactive)
- GI50 (LOX IMVI): > 100 µM (inactive)
- GI50 (RPMI-8226): > 100 µM (inactive)
- GI50 (NCI-H23): > 100 µM (inactive)
- GI50 (M14): > 100 µM (inactive)
- GI50 (Malme-3M): > 100 µM (inactive)
- GI50 (Hs-578T): > 100 µM (inactive)
- GI50 (SNB-19): > 100 µM (inactive)
- GI50 (BT-549): > 100 µM (inactive)
- GI50 (OVCAR-8): > 100 µM (inactive)
- GI50 (RXF 393): > 100 µM (inactive)
- GI50 (CCRF-CEM): > 100 µM (inactive)
- GI50 (A549): > 100 µM (inactive)
- GI50 (MCF7): > 100 µM (inactive)
- GI50 (OVCAR-4): > 100 µM (inactive)
- GI50 (UACC-257): > 100 µM (inactive)
- GI50 (HOP-92): > 100 µM (inactive)
- GI50 (OVCAR-5): > 100 µM (inactive)
- GI50 (KM12): > 100 µM (inactive)
- GI50 (NCI-H460): > 100 µM (inactive)
- GI50 (SK-MEL-28): > 100 µM (inactive)
- GI50 (DU-145): > 100 µM (inactive)
- GI50 (A498): > 100 µM (inactive)
- GI50 (U-251): > 100 µM (inactive)
- GI50 (UACC-62): > 100 µM (inactive)
- GI50 (K562): > 100 µM (inactive)
- GI50 (EKVX): > 100 µM (inactive)
- GI50 (HL-60): > 100 µM (inactive)
- GI50 (HOP-62): > 100 µM (inactive)
- GI50 (SK-OV-3): > 100 µM (inactive)
